# Measurements from ChEMBL document CHEMBL3272216 (J Med Chem, 1977).
# Where a SMILES comes first, the peptide text is derived from it. Bridges are numbered along the chain shown (N, C = ends). [ ]: non-standard residue; d: D form. pGlu = O=C1CC[C@@H](C(=O)O)N1
# Assays:
# Rattus norvegicus [1] = species on record: Rattus norvegicus; test: Binding affinity to neurotensin receptor in rat mast cells at 1 ng to 10 ug after 15 mins relative to neurotensin; format: cell-based
# Rattus norvegicus [2] = test: Induction of hypothermia in cold-exposed Sprague-Dawley rat compound administered intracisternally measured 60 mins post dose relative to neurotensin; format: functional
# [3] = Retention time of the compound in 0.01 M NH4OAc buffer at pH 4.5 by HPLC analysis; format: physicochemical
Retention_time [3] [min],SMILES,Ratio (Rattus norvegicus [1]),Ratio (Rattus norvegicus [2])
,CC[C@@H](C)[C@H](NC(=O)[C@H](Cc1ccc(O)cc1)NC(=O)[C@@H]1CCCN1C(=O)[C@H](CCCNC(=N)N)NC(=O)[C@@H](N)CCCNC(=N)N)C(=O)N[C@@H](CC(C)C)C(=O)O,67,
5.2,CC[C@H](C)[C@H](NC(=O)[C@@H](CC(C)C)NC(=O)[C@@H]1CCCN1C(=O)[C@H](CCCNC(=N)N)NC(=O)[C@H](CCCNC(=N)N)NC(=O)[C@@H]1CCCN1C(=O)[C@H](CCCCN)NC(=O)[C@H](CC(N)=O)NC(=O)[C@H](CCC(=O)O)NC(=O)[C@H](Cc1ccc(O)cc1)NC(=O)[C@H](CC(C)C)NC(=O)[C@@H]1CCC(=O)N1)C(=O)N[C@@H](CC(C)C)C(=O)O,,30
5.3,CC[C@H](C)[C@@H]1NC(=O)[C@H](Cc2ccc(O)cc2)NC(=O)[C@@H]2CCCN2C(=O)[C@H](CCCNC(=N)N)NC(=O)[C@H](CCCNC(=N)N)NC(=O)[C@@H]2CCCN2C(=O)[C@H](CCCCN)NC(=O)[C@H](CC(N)=O)NC(=O)[C@H](CCC(=O)O)NC(=O)[C@H](Cc2ccc(O)cc2)NC(=O)[C@@H](NC(=O)[C@@H]2CCC(=O)N2)CSSC[C@@H](C(=O)O)NC1=O ([pGlu]CYENKPRRPYIC-OH; disulfide 2-13),3.4,100
,CC[C@H](C)[C@H](NC(=O)[C@H](Cc1ccc(O)cc1)NC(=O)[C@@H]1CCCN1C(=O)[C@@H](N)CCCN=C(N)N)C(=O)N[C@@H](CC(C)C)C(=O)O,76,20
9.7,CC[C@H](C)[C@H](NC(=O)[C@H](Cc1ccccc1)NC(=O)[C@@H]1CCCN1C(=O)[C@H](CCCN=C(N)N)NC(=O)[C@H](CCCN=C(N)N)NC(=O)[C@@H]1CCCN1C(=O)[C@H](CCCCN)NC(=O)[C@H](CC(N)=O)NC(=O)[C@H](CCC(=O)O)NC(=O)[C@H](Cc1ccc(O)cc1)NC(=O)[C@H](CC(C)C)NC(=O)[C@@H]1CCC(=O)N1)C(=O)N[C@@H](CC(C)C)C(=O)O,100,100
6.4,CC[C@H](C)[C@H](NC(=O)[C@@H](CCCCN)NC(=O)[C@@H]1CCCN1C(=O)[C@H](CCCNC(=N)N)NC(=O)[C@H](CCCNC(=N)N)NC(=O)[C@@H]1CCCN1C(=O)[C@H](CCCCN)NC(=O)[C@H](CC(N)=O)NC(=O)[C@H](CCC(=O)O)NC(=O)[C@H](Cc1ccc(O)cc1)NC(=O)[C@H](CC(C)C)NC(=O)[C@@H]1CCC(=O)N1)C(=O)N[C@@H](CC(C)C)C(=O)O,3.4,<1
4.9,CC[C@H](C)[C@H](NC(=O)[C@H](Cc1ccc(O)cc1)NC(=O)[C@@H]1CCCN1C(=O)[C@H](CCCNC(=N)N)NC(=O)[C@H](CCCNC(=N)N)NC(=O)[C@@H]1CCCN1C(=O)[C@H](CCCCN)NC(=O)[C@H](CC(N)=O)NC(=O)[C@H](CCC(=O)O)NC(=O)[C@H](Cc1ccccc1)NC(=O)[C@H](CC(C)C)NC(=O)[C@@H]1CCC(=O)N1)C(=O)N[C@@H](CC(C)C)C(=O)O,102,100
10.4,CC[C@H](C)[C@H](NC(=O)[C@H](Cc1ccc(O)cc1)NC(=O)[C@@H]1CCCN1C(=O)[C@@H](N)CCCNC(=N)N)C(=O)N[C@@H](CC(C)C)C(=O)O,,
5.3,CC[C@H](C)[C@H](NC(=O)[C@@H](Cc1ccccc1)NC(=O)[C@@H]1CCCN1C(=O)[C@H](CCCN=C(N)N)NC(=O)[C@H](CCCN=C(N)N)NC(=O)[C@@H]1CCCN1C(=O)[C@H](CCCCN)NC(=O)[C@H](CC(N)=O)NC(=O)[C@H](CCC(=O)O)NC(=O)[C@H](Cc1ccc(O)cc1)NC(=O)[C@H](CC(C)C)NC(=O)[C@@H]1CCC(=O)N1)C(=O)N[C@@H](CC(C)C)C(=O)O,0.64,1000
8.2,CC[C@H](C)[C@H](NC(=O)[C@H](Cc1ccc(O)cc1)NC(=O)[C@@H]1CCCN1C(=O)[C@H](CCCNC(=N)N)NC(=O)[C@@H](N)CCCNC(=N)N)C(=O)N[C@@H](CC(C)C)C(=O)O [listing 1 of 2 here],,
,CC[C@H](C)[C@H](NC(=O)[C@H](Cc1ccc(O)cc1)NC(=O)[C@@H]1CCCN1C(=O)[C@H](CCCNC(=N)N)NC(=O)[C@@H](N)CCCNC(=N)N)C(=O)N[C@@H](CC(C)C)C(=O)O [listing 2 of 2 here],,25
